Tests used:
D(2) dopamine receptor = D(2) dopamine receptor (Homo sapiens, UniProt P14416)
D(4) dopamine receptor [1] = biological target: T1, D(4) dopamine receptor (Homo sapiens, UniProt P21917); test: Binding affinity towards Chinese hamster ovary cells transfected with human D4 receptor using [3H]spiperone; type: cell-based
T1 sequence (P21917 whole entry): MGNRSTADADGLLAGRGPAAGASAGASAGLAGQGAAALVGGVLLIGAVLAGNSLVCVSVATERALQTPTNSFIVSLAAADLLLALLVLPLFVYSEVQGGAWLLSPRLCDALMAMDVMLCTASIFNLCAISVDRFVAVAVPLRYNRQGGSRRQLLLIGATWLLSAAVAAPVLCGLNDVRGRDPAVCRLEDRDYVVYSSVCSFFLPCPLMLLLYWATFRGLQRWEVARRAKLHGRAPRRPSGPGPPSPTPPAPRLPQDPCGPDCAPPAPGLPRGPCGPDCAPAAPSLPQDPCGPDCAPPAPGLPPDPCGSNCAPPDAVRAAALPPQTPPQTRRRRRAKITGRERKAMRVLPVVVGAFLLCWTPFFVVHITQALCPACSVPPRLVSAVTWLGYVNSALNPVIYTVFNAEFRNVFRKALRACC

[2] = biological target: T2, Adrenergic receptor alpha-1 (Rattus norvegicus, UniProt P15823+P23944+P43140); test: Compound was evaluated for binding affinity towards Alpha-1 adrenergic receptor using [3H]prazosin in rat heart
T2 sequence (P15823 whole entry): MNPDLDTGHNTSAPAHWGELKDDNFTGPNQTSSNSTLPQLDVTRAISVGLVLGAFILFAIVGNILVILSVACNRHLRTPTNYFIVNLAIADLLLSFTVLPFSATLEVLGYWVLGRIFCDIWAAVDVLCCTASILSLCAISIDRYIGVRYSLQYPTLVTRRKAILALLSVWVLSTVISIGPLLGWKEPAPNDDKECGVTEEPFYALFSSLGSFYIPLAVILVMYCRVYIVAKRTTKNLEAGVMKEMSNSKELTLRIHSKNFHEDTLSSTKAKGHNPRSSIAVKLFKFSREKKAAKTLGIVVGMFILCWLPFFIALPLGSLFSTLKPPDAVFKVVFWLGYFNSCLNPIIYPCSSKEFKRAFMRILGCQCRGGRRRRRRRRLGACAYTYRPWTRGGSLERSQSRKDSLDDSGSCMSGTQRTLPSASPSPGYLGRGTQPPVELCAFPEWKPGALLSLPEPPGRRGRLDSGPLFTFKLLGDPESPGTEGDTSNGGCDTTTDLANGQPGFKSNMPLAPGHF
T2 sequence (P23944 whole entry): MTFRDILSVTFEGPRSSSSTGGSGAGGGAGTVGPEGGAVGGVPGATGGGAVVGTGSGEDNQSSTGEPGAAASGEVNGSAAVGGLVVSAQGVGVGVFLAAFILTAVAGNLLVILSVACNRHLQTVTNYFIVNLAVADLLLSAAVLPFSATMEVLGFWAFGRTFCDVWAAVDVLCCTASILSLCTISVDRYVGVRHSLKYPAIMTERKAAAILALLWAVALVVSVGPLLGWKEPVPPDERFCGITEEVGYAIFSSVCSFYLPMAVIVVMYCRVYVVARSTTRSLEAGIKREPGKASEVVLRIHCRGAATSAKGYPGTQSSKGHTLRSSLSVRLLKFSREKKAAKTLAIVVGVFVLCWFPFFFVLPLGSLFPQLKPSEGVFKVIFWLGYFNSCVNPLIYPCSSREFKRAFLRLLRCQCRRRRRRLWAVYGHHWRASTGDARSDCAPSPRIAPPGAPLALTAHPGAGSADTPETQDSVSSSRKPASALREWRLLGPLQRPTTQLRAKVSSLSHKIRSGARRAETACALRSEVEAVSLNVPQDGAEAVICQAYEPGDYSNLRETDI
T2 sequence (P43140 whole entry): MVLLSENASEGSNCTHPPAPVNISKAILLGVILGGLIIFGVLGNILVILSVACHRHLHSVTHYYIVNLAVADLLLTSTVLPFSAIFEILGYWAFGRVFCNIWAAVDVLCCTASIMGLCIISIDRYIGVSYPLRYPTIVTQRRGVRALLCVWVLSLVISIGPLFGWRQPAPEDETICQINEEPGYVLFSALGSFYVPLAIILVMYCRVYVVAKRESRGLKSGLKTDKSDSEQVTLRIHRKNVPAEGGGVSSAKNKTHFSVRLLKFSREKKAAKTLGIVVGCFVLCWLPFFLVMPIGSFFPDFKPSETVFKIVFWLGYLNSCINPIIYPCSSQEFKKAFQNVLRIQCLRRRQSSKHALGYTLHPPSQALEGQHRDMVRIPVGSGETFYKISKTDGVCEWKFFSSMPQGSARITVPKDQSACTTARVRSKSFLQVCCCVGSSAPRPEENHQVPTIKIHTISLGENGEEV

[3] = biological target: T3, 5-hydroxytryptamine receptor 1A (Rattus norvegicus, UniProt P19327); test: Binding affinity towards 5-hydroxytryptamine 1A receptor using [3H]8-OH-DPAT in rat hippocampus; type: tissue-based
T3 sequence (P19327 whole entry): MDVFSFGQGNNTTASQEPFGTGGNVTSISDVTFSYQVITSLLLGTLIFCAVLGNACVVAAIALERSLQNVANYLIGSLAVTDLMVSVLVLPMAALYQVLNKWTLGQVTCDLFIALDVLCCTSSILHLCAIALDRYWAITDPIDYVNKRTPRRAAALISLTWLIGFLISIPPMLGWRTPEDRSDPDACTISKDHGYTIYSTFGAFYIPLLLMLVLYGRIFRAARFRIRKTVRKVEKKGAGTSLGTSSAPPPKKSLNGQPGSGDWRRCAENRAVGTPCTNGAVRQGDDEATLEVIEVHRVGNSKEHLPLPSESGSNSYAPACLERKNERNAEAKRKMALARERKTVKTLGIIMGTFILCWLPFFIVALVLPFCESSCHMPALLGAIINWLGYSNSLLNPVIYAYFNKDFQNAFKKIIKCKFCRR

D(1A) dopamine receptor = D(1A) dopamine receptor (Rattus norvegicus, UniProt P18901); test: Binding affinity towards D1 receptor using [3H]-SCH- 23390 in rat striatal tissue; type: tissue-based, Striatum
D(1A) dopamine receptor, sequence (P18901 whole entry): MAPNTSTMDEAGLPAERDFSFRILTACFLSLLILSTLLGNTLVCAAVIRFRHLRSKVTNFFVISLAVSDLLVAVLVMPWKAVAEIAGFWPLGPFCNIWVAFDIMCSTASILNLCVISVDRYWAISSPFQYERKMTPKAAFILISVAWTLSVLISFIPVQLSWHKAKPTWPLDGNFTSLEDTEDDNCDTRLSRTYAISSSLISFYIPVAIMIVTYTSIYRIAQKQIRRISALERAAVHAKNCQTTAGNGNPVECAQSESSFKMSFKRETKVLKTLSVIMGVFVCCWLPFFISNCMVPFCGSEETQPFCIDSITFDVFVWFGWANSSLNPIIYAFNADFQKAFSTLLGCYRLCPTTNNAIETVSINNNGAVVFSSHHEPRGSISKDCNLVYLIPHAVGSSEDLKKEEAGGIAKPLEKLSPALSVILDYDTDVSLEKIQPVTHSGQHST

D(3) dopamine receptor = D(3) dopamine receptor (Homo sapiens, UniProt P35462); test: biochemical
D(3) dopamine receptor, sequence (P35462 whole entry): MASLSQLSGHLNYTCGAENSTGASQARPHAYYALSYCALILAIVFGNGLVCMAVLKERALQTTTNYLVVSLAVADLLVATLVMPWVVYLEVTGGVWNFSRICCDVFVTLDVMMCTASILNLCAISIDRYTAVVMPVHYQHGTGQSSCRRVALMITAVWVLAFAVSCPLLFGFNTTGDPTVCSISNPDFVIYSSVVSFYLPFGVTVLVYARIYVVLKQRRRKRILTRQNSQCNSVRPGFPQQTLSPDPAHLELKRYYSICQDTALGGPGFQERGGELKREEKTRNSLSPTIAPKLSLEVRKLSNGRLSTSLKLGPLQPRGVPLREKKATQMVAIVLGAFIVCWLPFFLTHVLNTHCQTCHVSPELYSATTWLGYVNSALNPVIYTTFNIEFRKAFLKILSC

[4] = biological target: T2, Adrenergic receptor alpha-1; test: Binding affinity towards Alpha-1 adrenergic receptor using [3H]prazosin in rat heart
Rattus norvegicus [5] = test: Selectivity for mesolimbic over nigrostriatal dopamine system in rat brain as ventral tegmental area infusion of muscimol induced locomotor activity (LMA) by sc dose; type: functional
D(4) dopamine receptor [6] = biological target: T1, D(4) dopamine receptor; test: Binding affinity towards Dopamine D4 receptor
[7] = biological target: Serotonin 3 (5-HT3) receptor; test: Binding affinity towards 5-hydroxytryptamine 3 receptor; type: protein-complex assay
[8] = biological target: Adrenergic receptor alpha-1 (Homo sapiens) (UniProt P35348+P25100+P35368); test: Binding affinity towards Alpha-1 adrenergic receptor; type: protein assay
[9] = biological target: 5-hydroxytryptamine receptor 2A (Bos taurus) (UniProt Q75Z89); test: Binding affinity towards 5-hydroxytryptamine 2 receptor
5-hydroxytryptamine receptor 2A (Bos taurus), sequence (Q75Z89 whole entry, the tested form may be a part): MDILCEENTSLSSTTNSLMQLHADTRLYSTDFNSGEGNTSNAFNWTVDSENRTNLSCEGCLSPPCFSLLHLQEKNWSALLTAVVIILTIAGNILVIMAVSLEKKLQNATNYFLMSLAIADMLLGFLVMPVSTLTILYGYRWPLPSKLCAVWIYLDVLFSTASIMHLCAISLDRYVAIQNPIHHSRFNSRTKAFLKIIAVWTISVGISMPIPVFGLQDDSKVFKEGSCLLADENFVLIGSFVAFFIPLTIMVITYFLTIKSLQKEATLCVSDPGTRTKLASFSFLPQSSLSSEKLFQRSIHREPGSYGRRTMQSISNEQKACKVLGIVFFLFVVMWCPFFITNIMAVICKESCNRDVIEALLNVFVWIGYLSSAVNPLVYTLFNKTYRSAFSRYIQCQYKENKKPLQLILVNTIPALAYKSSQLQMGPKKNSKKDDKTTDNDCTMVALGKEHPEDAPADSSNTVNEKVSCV

Rattus norvegicus [10] = test: Selectivity for mesolimbic over nigrostriatal dopamine system in rat brain as substania nigra zona reticulata infusion of muscimol-induced locomotor activity (LMA) by sc dose; type: functional

D(2) dopamine receptor, sequence (P14416 whole entry): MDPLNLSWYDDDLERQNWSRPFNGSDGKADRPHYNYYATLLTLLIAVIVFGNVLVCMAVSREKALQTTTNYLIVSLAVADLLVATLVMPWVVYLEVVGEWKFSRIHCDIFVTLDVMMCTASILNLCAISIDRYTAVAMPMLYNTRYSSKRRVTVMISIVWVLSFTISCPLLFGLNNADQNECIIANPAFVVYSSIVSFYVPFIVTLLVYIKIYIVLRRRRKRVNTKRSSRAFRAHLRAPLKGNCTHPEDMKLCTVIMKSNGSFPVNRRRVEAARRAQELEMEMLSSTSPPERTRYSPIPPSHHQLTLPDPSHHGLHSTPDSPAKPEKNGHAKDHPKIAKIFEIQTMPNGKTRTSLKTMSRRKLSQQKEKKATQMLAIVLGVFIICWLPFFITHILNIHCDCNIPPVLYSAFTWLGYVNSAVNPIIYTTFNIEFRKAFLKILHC

| Ki (D(2) dopamine receptor) [µM] | Log Ki [2] | Ki [3] [µM] | Ki (D(1A) dopamine receptor) [µM] | Ki (D(3) dopamine receptor) [µM] | SMILES | other results |
| --- | --- | --- | --- | --- | --- | --- |
| 0.0398 | -7.9 | 0.0126 | 0.501 | 0.000501 | COc1ccccc1N1CCN(CCCCNC(=O)c2ccc(Br)cc2)CC1 | Ki (D(4) dopamine receptor [1]): 0.0501 µM |
| 0.1 | -7.5 | 0.251 | – | 0.00316 | COc1ccc(OC)c(N2CCN(CCCCNC(=O)c3ccc(Br)cc3)CC2)c1 | – |
| 0.398 | – | 0.126 | – | 0.00631 | O=C(NCCCCN1CCN(c2ccccc2)CC1)c1ccc(Br)cc1 | – |
| 0.02 | -8 | 0.0126 | 0.1 | 0.0002 | COc1ccccc1N1CCN(CCCCNC(=O)c2ccc(-c3ccc(N)cc3)cc2)CC1 | – |

Continued, molecule first:

| SMILES | Ki (D(2) dopamine receptor) [µM] | Log Ki [2] | Ki [3] [µM] | Ki (D(1A) dopamine receptor) [µM] | Ki (D(3) dopamine receptor) [µM] | other results |
| --- | --- | --- | --- | --- | --- | --- |
| COc1ccccc1N1CCN(CCCCNC(=O)c2ccc(-c3ccc(C(C)=O)cc3)cc2)CC1 | 0.0398 | – | 0.00316 | 0.398 | 0.000316 | Log Ki [4]: -7.9; ED50 (Rattus norvegicus [5]): 0.3 mg/kg; Ki (D(4) dopamine receptor [6]): 0.0631 µM; Log Ki [7]: > -5; pKB [8]: 7.8; pKB [9]: < 5; ED50 (Rattus norvegicus [10]): > 10 mg/kg |
| O=C(CCCN1CCC(O)(c2ccc(Cl)cc2)CC1)c1ccc(F)cc1 [HALOPERIDOL] | – | – | – | – | – | ED50 (Rattus norvegicus [10]): 0.05 mg/kg |
| CN1CCN(C2=Nc3cc(Cl)ccc3Nc3ccccc32)CC1 [CLOZAPINE] | – | – | – | – | – | ED50 (Rattus norvegicus [5]): 0.002 mg/kg |
| COc1ccccc1N1CCN(CCCCNC(=O)c2ccc(-c3ccc(S(C)(=O)=O)cc3)cc2)CC1 | 0.0251 | -7.9 | 0.02 | 0.158 | 0.000316 | – |
